Experimental findings from US10640767B2, “Assay for exo-site binding molecules” (President and Fellows of Harvard College, priority 2016, dated 2020) are described below.

This experiment addresses T1, Recombinant His6-tagged IDE (Homo sapiens, UniProt P14735).
T1 construct: made in house; host or cells: E. coli Rosetta 2 (DE3) pLysS, plasmid pTrcHis-A
T1 sequence (P14735 42-1019): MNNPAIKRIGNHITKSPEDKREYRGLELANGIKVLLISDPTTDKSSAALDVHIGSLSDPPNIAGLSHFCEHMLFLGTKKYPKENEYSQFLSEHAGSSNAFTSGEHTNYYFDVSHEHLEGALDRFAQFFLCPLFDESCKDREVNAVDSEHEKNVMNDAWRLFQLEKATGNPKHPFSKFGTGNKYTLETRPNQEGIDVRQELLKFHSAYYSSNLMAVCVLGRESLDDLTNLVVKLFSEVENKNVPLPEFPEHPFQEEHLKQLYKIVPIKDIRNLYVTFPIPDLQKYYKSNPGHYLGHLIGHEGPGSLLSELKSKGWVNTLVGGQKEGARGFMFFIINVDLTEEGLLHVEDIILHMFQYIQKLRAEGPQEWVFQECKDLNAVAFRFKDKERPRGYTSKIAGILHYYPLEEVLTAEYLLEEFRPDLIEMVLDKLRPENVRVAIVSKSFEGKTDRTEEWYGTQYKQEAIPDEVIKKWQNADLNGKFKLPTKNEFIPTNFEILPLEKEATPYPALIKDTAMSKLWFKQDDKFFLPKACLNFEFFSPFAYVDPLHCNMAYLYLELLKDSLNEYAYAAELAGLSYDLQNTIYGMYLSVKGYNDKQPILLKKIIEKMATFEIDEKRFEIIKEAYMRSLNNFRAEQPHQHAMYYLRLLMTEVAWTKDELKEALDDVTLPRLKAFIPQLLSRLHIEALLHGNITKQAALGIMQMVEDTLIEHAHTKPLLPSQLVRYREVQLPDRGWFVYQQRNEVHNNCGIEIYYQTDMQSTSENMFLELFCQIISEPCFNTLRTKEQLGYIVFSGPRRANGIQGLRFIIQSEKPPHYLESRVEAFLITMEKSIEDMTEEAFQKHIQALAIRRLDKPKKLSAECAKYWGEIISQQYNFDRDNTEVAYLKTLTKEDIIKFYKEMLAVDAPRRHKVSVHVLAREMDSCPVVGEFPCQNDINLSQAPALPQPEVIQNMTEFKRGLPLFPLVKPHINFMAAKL
As to the kind of experiment: IDE protease activity assay with fluorogenic peptide substrate Mca-RPPGFSAFK(Dnp)-OH. It is filed as biochemical. The settings on record: inhibitor 20 μM final; purified recombinant His6-tagged IDE proteins. The procedure:
Recombinant His6-tagged IDE and IDE-A479L were purified by Ni(II)-affinity chromatography (IMAC sepharose beads, GE Healthcare®) according to the manufacturer's instructions. The cell pellets were resuspended in pH 8.0 buffer containing 50 mM phosphate, 300 mM NaCl, 10 mM imidazole, 1% Triton X-100 and 1 mM tris(2-carboxyethyl)phosphine hydrochloride (TCEP), and were lysed by probe sonication for 4 min at <4° C., followed by clearing of cell debris by centrifugation at 10,000 g for 25 min at 4° C. The supernatant was incubated with Ni(II)-doped IMAC resin (2 mL) for 3 h at 4° C. The resin was washed twice with the cell resuspension/lysis buffer, and three times with pH 8.0 buffer containing 50 mM phosphate, 300 mM NaCl, 50 mM imidazole and 1 mM TCEP. Elution was performed in 2 mL aliquots by raising the imidazole concentration to 250 mM and subsequently to 500 mM in the previous buffer. The fractions were combined and the buffer was exchanged to the recommended IDE buffer (R&D) using spin columns with 100 KDa molecular weight cut off membranes (Millipore). Protein yields were typically ˜10 μg/L, and >90% purity based on gel electrophoresis analysis (Coomassie stained).

As for `NCCCC[C@@H]1NC(=O)/C=C/C(=O)N[C@H](C(N)=O)CCCCNC(=O)[C@@H](Cc2ccc(C(=O)c3ccccc3)cc2)NC(=O)[C@H](CC2CCCCC2)NC1=O` [6bK], the “IDE-specific protease activity as assessed by inhibition of degradation of peptide substrate Mca-RPPGFSAFK(Dnp)-OH” value is on record as more than 95%.
